Test results reported in patent US10697024B2, “Methods of determining IMiDS resistance in plasma cell disorders” (The Charlotte Mecklenburg Hospital Authority, priority 2016, dated 2020).

Test system: CD138-purified plasma cells
Assay: GEP-based pharmacogenomics of paired plasma cells prior to and 48 hours after an IMiD test dose
Type: in vivo, human
Details: MM patients, bone marrow plasma cells, 48 hr after test dose vs. baseline, SAM analysis; Affymetrix U95Av2 (thalidomide 400 mg/d, lenalidomide 25 to 50 mg/d) or U133Plus2.0 (pomalidomide 4 mg/d)
Description: GEP-based pharmacogenomics of paired CD138-purified plasma cells, obtained from patients prior to and 48 hours after administration of test doses of Thal (42 newly diagnosed MM), Len (18 relapsed/refractory MM), or Pom (18 relapsed/refractory MM) were compared using significance analysis of microarrays (SAM).
Plasma cell purifications and GEP, using the Affymetrix U133 Plus 2.0 microarray, were performed as previously described (Ref: Zhan F, Huang Y, Colla S, et al. The molecular classification of multiple myeloma. Blood. 2006; 108:2020-2028.). Samples were hybridized to Affymetrix expression arrays. Affymetrix U133Plus2.0 arrays were used in the pomalidomide study and Affymetrix U95Av2 arrays were used for thalidomide and lenalidomide pharmacogenomics studies. Bone marrow samples from MM patients enrolled in pharmacogenomics study were obtained prior to, and 48 hours after administration of a test dose of thalidomide (n=42 newly diagnosed), lenalidomide (n=18 relapsed/refractory) or pomalidomide (n=18 relapsed refractory). Plasma cell isolation from mononuclear cell fraction was performed by immunomagnetic bead selection with monoclonal anti-human CD138 antibody using the AutoMACS automated separation system (Miltenyi-Biotec) as previously described. Isolated bone marrow plasma cells were processed and analyzed for Gene-expression profiling (GEP) according to previously reported methods. Samples were hybridized to an Affymetrix U133Plus2.0 microarray for pomalidomide study and to an Affymetrix U95Av2 microarray for thalidomide and lenalidomide studies according to the manufacturer's recommendations and then read on GeneChip Scanner 3000 (Affymetrix). The data files were deposited in the ArrayExpress archive under the accession number E-TABM-1138. […]

| Structure (SMILES) | Probe sets changed (p < 0.05) after 48 hr of IMiD treatment |
| --- | --- |
| Nc1cccc2c1CN(C1CCC(=O)NC1=O)C2=O (stereo not drawn) [Lenalidomide, lenalidomide] | 1304 |
| Nc1cccc2c1C(=O)N(C1CCC(=O)NC1=O)C2=O (stereo not drawn) [Pomalidomide, pomalidomide] | 4944 |
| O=C1CCC(N2C(=O)c3ccccc3C2=O)C(=O)N1 (stereo not drawn) [Thalidomide, thalidomide] | 1398 |
